Literature values as cited in Sander's compilation of Henry's law constants (doi:10.1039/f19888401985).

Assay: Henry solubility constant Hcp at 298.15 K (mol/(m3 Pa))
Conditions: reference: Abraham and Matteoli (1988); cited value

Henry solubility constant Hcp	SMILES
4.4e-06	CCCCCCC [heptane]
1.4e-05	[Ar] [argon]
8e-06	CCCCC [pentane]
6.1e-06	CCCCCC [hexane]
4.4e-06	[Ne] [neon]
3.8e-06	[He] [helium]
1.3e-05	CCCC [butane]
4.3e-05	[Xe] [xenon]
9.1e-05	[Rn] [radon]
3.1e-06	CCCCCCCC [octane]
2.5e-05	[Kr] [krypton]
